# Experimental data reported in ChEMBL document CHEMBL5649166, “RIP3 induces apoptosis independent of pronecrotic kinase activity” (Mol Cell, 2014).
# Activity calls are given as the source filed them. The calls are words filed in the database; no cut-off is given here.
# Legend:
# L929 [1] = assay: Inhibition of TLR-3 induced necroptosis in mouse L929 cells assessed as increase in cell viability at 1 uM incubated for 18 hrs in presence of poly(I:C) by Cell Titer-Glo luminescent cell viability assay; assay type: functional, cell-based
# SVEC4-10 [2] = assay: Inhibition of DAI-induced necroptosis in MCMV M45mutRHIM infected mouse SVEC4-10 cells assessed as increase in cell viability at 10 uM incubated for 18 hrs by Cell Titer-Glo luminescent cell viability assay; assay type: functional, cell-based
# 3T3SA [3] = assay: Inhibition of TNF-alpha induced necroptosis in mouse 3T3SA cells at 10 uM incubated for 18 hrs in presence of zVAD by SYTOX green uptake assay; assay type: functional, cell-based
# 3T3SA [4] = assay: Induction of apoptosis in mouse 3T3SA cells assessed as cell death by measuring percent of PI positive cells incubated for 3 hrs by PI staining based flow cytometric analysis (reference value: 10.7%); assay type: toxicity
# 3T3SA [5] = assay: Induction of apoptosis in mouse 3T3SA cells assessed as cell death by measuring percent of PI positive cells incubated for 8 hrs by PI staining based flow cytometric analysis (reference value: 11.4%); assay type: toxicity
# 3T3SA [6] = assay: Induction of apoptosis in mouse 3T3SA cells assessed as cell death by measuring percent of PI positive cells incubated for 8 hrs in presence of zVAD by PI staining based flow cytometric analysis (reference value: 11.4%); assay type: toxicity
# 3T3SA [7] = assay: Induction of apoptosis in mouse 3T3SA cells assessed as accumulation of cleaved caspase-3 by measuring percentage of cleaved caspase-3 positive cells measured after 2.5 hrs by immunoblot analysis (reference value: 4%); assay type: toxicity, cell-based
# L929 [8] = assay: Induction of apoptosis in mouse L929 cells transfected with RIP3 shRNA at 10 uM incubated for 18 hrs by Cell Titer-Glo luminescent cell viability assay; assay type: toxicity, cell-based; conditions: l929, 18 h
# MEF [9] = assay: Induction of apoptosis in RIP3-/- MEF cells incubated for 18 hrs by Cell Titer-Glo luminescent cell viability assay; assay type: toxicity, cell-based; conditions: mouse
# 3T3SA [10] = assay: Induction of apoptosis in mouse 3T3SA cells incubated for 18 hrs in presence of zYVAD by Cell Titer-Glo luminescent cell viability assay; assay type: toxicity, cell-based
# 3T3SA [11] = assay: Induction of apoptosis in mouse 3T3SA cells incubated for 18 hrs in presence of zLEHD by Cell Titer-Glo luminescent cell viability assay; assay type: toxicity, cell-based
# 3T3SA [12] = assay: Induction of apoptosis in mouse 3T3SA cells incubated for 18 hrs in presence of 3-MA by Cell Titer-Glo luminescent cell viability assay; assay type: toxicity, cell-based
# 3T3SA [13] = assay: Induction of apoptosis in mouse 3T3SA cells transfected with Caspase8 siRNA incubated for 2.5 hrs by Cell Titer-Glo luminescent cell viability assay; assay type: toxicity, cell-based
# 3T3SA [14] = assay: Induction of apoptosis in mouse 3T3SA cells transfected with Caspase8 siRNA assessed as cleaved caspase 8 accumulation incubated for 2.5 hrs by immunoblot analysis; assay type: toxicity, cell-based
# 3T3SA [15] = assay: Induction of apoptosis in mouse 3T3SA cells incubated for 18 hrs in presence of Nec-1 by Cell Titer-Glo luminescent cell viability assay; assay type: toxicity, cell-based
# MEF [16] = assay: Induction of apoptosis in MEF cells expressing RIP1 K45A/K45A mutant incubated for 18 hrs by Cell Titer-Glo luminescent cell viability assay; assay type: toxicity, cell-based; conditions: mouse
# 3T3SA [17] = assay: Inhibition of necroptosis in mouse 3T3SA cells incubated for 18 hrs in presence of Nec-1 by Cell Titer-Glo luminescent cell viability assay; assay type: functional, cell-based
# MEF [18] = assay: Inhibition of necroptosis in MEF cells expressing RIP1 K45A/K45A mutant incubated for 18 hrs by Cell Titer-Glo luminescent cell viability assay; assay type: functional, cell-based; conditions: Mus musculus
# MEF [19] = assay: Induction of apoptosis in cFLIPL-/- MEF cells transfected with cFLIPL expressing retrovirus assessed as increase in caspase 8 proteolytic activity incubated for 4 hrs; assay type: toxicity, cell-based; conditions: mouse
# SVEC4-10 [20] = assay: Induction of apoptosis in mouse SVEC4-10 cells transfected with M45mutRHIM incubated for 18 hrs by Cell Titer-Glo luminescent cell viability assay; assay type: toxicity, cell-based; conditions: svec4-10, 18 h
# 3T3SA [21] = assay: Induction of apoptosis in mouse 3T3SA cells incubated for 18 hrs in presence of BMS-345541 by Cell Titer-Glo luminescent cell viability assay; assay type: toxicity, cell-based
# 3T3SA [22] = assay: Induction of apoptosis in RIP3shRNA transfected mouse 3T3SA cells co-transfected with shRNA-resistant RIP3 K51A mutant pre-tranfected for 16 hrs followed by compound addition and measured after 18 hrs in presence of zVAD by Cell Titer-Glo luminescent cell viability assay; assay type: toxicity, cell-based
# 3T3SA [23] = assay: Induction of apoptosis in RIP3shRNA transfected mouse 3T3SA cells co-transfected with shRNA-resistant RIP3 mutRHIM pre-tranfected for 16 hrs followed by compound addition and measured after 18 hrs in presence of zVAD by Cell Titer-Glo luminescent cell viability assay; assay type: toxicity, cell-based
# 3T3SA [24] = assay: Induction of apoptosis in vICA expression plasmid transfected mouse 3T3SA cells co-transfected with shRNA-resistant empty vector incubated for 12 hrs by Cell Titer-Glo luminescent cell viability assay; assay type: toxicity, cell-based
# 3T3SA [25] = assay: Induction of apoptosis in vICA expression plasmid transfected mouse 3T3SA cells co-transfected with shRNA-resistant RIP3 K51A mutant incubated for 12 hrs by Cell Titer-Glo luminescent cell viability assay; assay type: toxicity, cell-based
# 3T3SA [26] = assay: Induction of apoptosis in vICA expression plasmid transfected mouse 3T3SA cells co-transfected with shRNA-resistant RIP3 D161G mutant incubated for 12 hrs by Cell Titer-Glo luminescent cell viability assay; assay type: toxicity, cell-based
# MEF [27] = assay: Induction of apoptosis in RIP3-/- MEF cells expressing dox-induced wildtype RIP3 assessed as RIP1-FADD association incubated for 1 hrs by immunoblot analysis; assay type: toxicity, cell-based; conditions: mouse
# MEF [28] = assay: Induction of apoptosis in RIP3-/- MEF cells expressing dox-induced wildtype RIP3 assessed as RIP1-RPI3 association incubated for 1 hrs by immunoblot analysis; assay type: toxicity, cell-based; conditions: mouse
# MEF [29] = assay: Induction of apoptosis in RIP3-/- MEF cells expressing dox-induced RIP3 K51A mutant assessed as RIP1-FADD association incubated for 1 hrs by immunoblot analysis; assay type: toxicity, cell-based; conditions: mouse
# MEF [30] = assay: Induction of apoptosis in RIP3-/- MEF cells expressing dox-induced RIP3 K51A mutant assessed as RIP1-RIP3 association incubated for 1 hrs by immunoblot analysis; assay type: toxicity, cell-based; conditions: mouse
# [31] = target: Serine/threonine-protein kinase mTOR (Homo sapiens) (UniProt P42345); assay: Inhibition of human mTOR/FRAP1 using at 1 uM in presence of 32P-ATP by Hotspot assay relative to control
# [32] = target: Serine/threonine-protein kinase tousled-like 2 (Homo sapiens) (UniProt Q86UE8); assay: Inhibition of human TLK2 using casein as substrate at 1 uM in presence of 32P-ATP by Hotspot assay relative to control; values are per cent of control
# Serine/threonine-protein kinase tousled-like 2 (Homo sapiens), sequence (Q86UE8 whole entry, looked up): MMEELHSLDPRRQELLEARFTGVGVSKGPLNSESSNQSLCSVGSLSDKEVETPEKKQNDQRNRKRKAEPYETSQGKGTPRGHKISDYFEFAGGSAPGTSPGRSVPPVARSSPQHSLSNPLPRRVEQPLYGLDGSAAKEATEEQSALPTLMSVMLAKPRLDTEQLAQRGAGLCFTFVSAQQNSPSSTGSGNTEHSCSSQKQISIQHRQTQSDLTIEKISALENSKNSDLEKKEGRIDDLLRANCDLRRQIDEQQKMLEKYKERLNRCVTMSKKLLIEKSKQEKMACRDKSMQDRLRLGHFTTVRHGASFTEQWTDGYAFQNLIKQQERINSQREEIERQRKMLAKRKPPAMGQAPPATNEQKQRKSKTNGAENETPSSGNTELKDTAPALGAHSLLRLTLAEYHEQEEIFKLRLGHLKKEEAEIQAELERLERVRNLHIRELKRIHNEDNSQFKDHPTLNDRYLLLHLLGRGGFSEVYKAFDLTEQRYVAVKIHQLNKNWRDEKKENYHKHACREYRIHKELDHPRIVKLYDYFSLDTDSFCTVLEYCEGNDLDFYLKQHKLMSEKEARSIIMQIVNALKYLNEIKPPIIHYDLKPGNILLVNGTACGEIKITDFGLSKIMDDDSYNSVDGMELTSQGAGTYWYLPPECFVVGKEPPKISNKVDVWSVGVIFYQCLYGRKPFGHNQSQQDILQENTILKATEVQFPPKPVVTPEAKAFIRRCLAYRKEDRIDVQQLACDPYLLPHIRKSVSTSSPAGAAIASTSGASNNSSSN
# [33] = target: Serine/threonine-protein kinase ULK1 (Homo sapiens) (UniProt O75385); assay: Inhibition of human ULK1 using myelin basic protein as substrate at 1 uM in presence of 32P-ATP by Hotspot assay relative to control; values are per cent of control
# Serine/threonine-protein kinase ULK1 (Homo sapiens), sequence (O75385 whole entry): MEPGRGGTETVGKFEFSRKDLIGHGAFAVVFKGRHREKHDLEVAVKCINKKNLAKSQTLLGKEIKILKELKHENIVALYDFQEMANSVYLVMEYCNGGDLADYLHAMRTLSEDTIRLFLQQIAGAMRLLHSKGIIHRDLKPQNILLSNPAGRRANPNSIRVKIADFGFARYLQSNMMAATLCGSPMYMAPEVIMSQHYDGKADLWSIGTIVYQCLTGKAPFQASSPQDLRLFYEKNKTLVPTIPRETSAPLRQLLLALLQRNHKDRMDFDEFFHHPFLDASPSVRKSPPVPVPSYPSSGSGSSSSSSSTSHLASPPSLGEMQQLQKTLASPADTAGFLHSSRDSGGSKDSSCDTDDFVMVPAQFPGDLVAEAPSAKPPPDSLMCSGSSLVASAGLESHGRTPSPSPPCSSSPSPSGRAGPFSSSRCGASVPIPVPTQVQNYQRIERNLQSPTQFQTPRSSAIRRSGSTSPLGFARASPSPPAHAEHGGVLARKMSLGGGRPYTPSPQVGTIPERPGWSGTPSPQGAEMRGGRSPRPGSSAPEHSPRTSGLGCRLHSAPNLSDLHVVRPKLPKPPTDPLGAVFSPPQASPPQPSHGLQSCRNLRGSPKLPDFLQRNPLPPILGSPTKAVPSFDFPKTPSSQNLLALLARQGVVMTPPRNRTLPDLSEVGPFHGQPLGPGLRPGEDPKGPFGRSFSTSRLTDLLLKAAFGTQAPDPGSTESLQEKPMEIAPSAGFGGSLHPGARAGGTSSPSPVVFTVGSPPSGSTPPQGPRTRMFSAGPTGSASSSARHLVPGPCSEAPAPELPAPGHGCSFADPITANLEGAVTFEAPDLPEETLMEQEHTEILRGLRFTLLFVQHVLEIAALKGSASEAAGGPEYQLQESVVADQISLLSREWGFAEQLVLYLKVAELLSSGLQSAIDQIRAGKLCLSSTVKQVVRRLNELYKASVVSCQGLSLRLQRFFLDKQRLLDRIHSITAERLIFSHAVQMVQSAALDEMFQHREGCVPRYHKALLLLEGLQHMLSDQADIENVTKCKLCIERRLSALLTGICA
# [34] = target: Serine/threonine-protein kinase ULK3 (Homo sapiens) (UniProt Q6PHR2); assay: Inhibition of human ULK3 using myelin basic protein as substrate at 1 uM in presence of 32P-ATP by Hotspot assay relative to control; values are per cent of control
# Serine/threonine-protein kinase ULK3 (Homo sapiens), sequence (Q6PHR2 whole entry): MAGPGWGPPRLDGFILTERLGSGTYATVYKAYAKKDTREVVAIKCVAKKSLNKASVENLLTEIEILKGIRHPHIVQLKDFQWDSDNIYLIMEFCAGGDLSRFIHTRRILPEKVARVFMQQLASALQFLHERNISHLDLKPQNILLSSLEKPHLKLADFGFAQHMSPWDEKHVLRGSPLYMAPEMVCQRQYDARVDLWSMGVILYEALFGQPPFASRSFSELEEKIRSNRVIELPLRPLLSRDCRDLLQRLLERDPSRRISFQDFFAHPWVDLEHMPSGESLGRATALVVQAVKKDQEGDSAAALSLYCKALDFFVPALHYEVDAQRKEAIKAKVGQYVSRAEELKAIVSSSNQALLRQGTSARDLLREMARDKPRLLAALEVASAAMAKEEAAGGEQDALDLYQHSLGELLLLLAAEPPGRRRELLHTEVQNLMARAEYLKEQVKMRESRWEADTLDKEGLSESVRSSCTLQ
structure (smiles),measurement,setting,value
CC(C)S(=O)(=O)c1ccc2nccc(Nc3ccc4scnc4c3)c2c1,inhibition,L929 [1],Active
same,inhibition,SVEC4-10 [2],inactive
same,Activity,3T3SA [3],Active
same,Activity,3T3SA [4],24%
same,Activity,3T3SA [5],62%
same,Activity,3T3SA [6],11%
same,Activity,3T3SA [7],29%
same,Activity,L929 [8],Non-Toxic
same,Activity,MEF [9],Non-Toxic
same,Activity,3T3SA [10],Toxic
same,Activity,3T3SA [11],Toxic
same,Activity,3T3SA [12],Toxic
same,Activity,3T3SA [13],Non-Toxic
same,Activity,3T3SA [14],Non-Toxic
same,Activity,3T3SA [15],Non-Toxic
same,Activity,MEF [16],Non-Toxic
same,inhibition,3T3SA [17],Active
same,inhibition,MEF [18],Active
same,Activity,MEF [19],Toxic
same,Activity,SVEC4-10 [20],Toxic
same,Activity,3T3SA [21],Toxic
same,Activity,3T3SA [22],Non-Toxic
same,Activity,3T3SA [23],Non-Toxic
same,Activity,3T3SA [24],Non-Toxic
same,Activity,3T3SA [25],Non-Toxic
same,Activity,3T3SA [26],Non-Toxic
same,Activity,MEF [27],Toxic
same,Activity,MEF [28],Toxic
same,Activity,MEF [29],Toxic
same,Activity,MEF [30],Toxic
Cc1cc(-c2cnc(N)c3c(-c4ccc5scnc5c4)csc23)n(C)n1,inhibition,[31],60.8%
CNC(=O)c1ccc2c(c1)ncn2-c1ccc(CC(=O)OC(C)(C)C)cc1,residual activity,[32],94.4%
same,residual activity,[33],104%
same,residual activity,[34],95.4%
